Series [1] relates to hippocampus, synaptic activity (LTP). Put plainly: LTP assay in injected animals. It is filed as in vivo, mouse. An excerpt: Injections of intact animals: Mice are anesthesized with urethane and placed in a sterotaxic apparatus. Body temperature is maintained using a heated water jacket pad. The brain surface is exposed through holes in the skull. Bregma and lambda positions for injection into the middle molecular layer of hippocampus are 2 mm posterior to bregma, 1 mm lateral to the midline, and 1.2-1.5 mm ventral to the brain surface. Amyloid β oligomer injections are by nitrogen puff through ˜[…] diameter glass pipettes. Volumes of 20-50 nL of amyloid β oligomer solution (180 nM of amyloid β) are given over the course of an hour. The animal is allowed to rest for varying time periods before the LTP stimulus is given.
LTP in injected animals: Experiments follow the paradigm established Routtenberg and colleagues for LTP in mice (Namgung, et al., 1995). Perforant path stimulation from the entorhinal cortex is used, with recording from the middle molecular layer and the cell body of the dentate gyrus. […] Some sections are placed on slides subbed with gelatin and others are analyzed using a free-floating protocol. […]
Wave forms are analyzed by machine as described previously (Colley, 1990, J. Neurosci.). […]

Series [2] has as its system brain slice cultures lacking a functional fyn gene. The series can be described thus: Brain slice cultures from mice that lack a functional fyn gene. It is filed as cell-based, mouse. Particulars: compared to vehicle controls. On the procedure: (§1) An adult mouse is sacrificed by carbon dioxide inhalation, followed by rapid decapitation. The head is emersed in cold, sterile dissection buffer (94 ml Gey's balanced salt solution, pH 7.2, supplemented with 2 mL 0.5M MgCl2, 2 ml 25% glucose, and 2 mL 1.0 M Hepes.), after which the brain is removed and placed on a sterile Sylgard-coated plate. The cerebellum is removed and a mid-line cut is made to separate the cerebral hemispheres. Each hemisphere is sliced separately. The hemisphere is placed with the mid-line cut down and a 30 degree slice from the dorsal side is made to orient the hemisphere. The hemisphere is glued cut side down on the plastic stage of a Campden tissue chopper (previously wiped with ethanol) and emersed in ice cold sterile buffer. Slices of 200 μm thickness are made from a lateral to medial direction, collecting those in which the hippocampus is visible. […] Cell death is measured using the LIVE/DEAD® assay kit (Molecular Probes, Eugene, Oreg.). This a dual-label fluorescence assay in which live cells are detected by the presence of an esterase that cleaves calcein-AM to calcein, resulting in a green fluorescence. Dead cells take up ethidium homodimer, which intercalates with DNA and has a red fluorescence. […] The MetaMorph image analysis system is used to quantify the number and/or area of cells showing green or red fluorescence. […]

Series [3] has as its system hippocampal brain slice cultures. The series can be described thus: Brain slice assay (LIVE/DEAD cell death). The class given is cell-based, mouse. On the procedure: as §1
Series [4] deals with serum starved B103 cells. The series can be described thus: Cell morphology by phase microscopy. The class given is cell-based, rat. On the procedure:
Cultures are grown to low density (50-60% confluence). To initiate the experiment, the cells are serum starved in F12 media for 1 hour. Cells are then incubated for 3 hours with amyloid β oligomers prepared as described in Example 1, with and without inhibitor compounds added to the cells for […]. After 3 hours, cells are examined for morphological differences or fixed for immunofluorescence labeling. Samples are examined using the MetaMorph Image Analysis system and an MRI video camera (Universal Imaging, Inc.).

Series [5] concerns hippocampal neurons. Put plainly: Neuronal viability in injected animals (brain slices after the LTP experiment). It is filed as in vivo, mouse. As to conditions: 20 nL injected into hippocampal region. On the procedure: After the LTP experiment is performed, animals are allowed to remover for various times and then sacrificed using sodium pentobarbitol asesthetic and perfusion with 4% paraformaldehye. For viability studies, times of 3 hours, 24 hours, 3 days, and 7 days are used. The brain is cryoprotected with 30% sucrose and then sectioned ([…]) with a microtome. Sections are placed on slides subbed with gelatin and stained initially with cresyl violet. Cell loss is measured by counting cell bodies in the dentate gyrus, CA3, CA1, and entorhinal cortex and is correlated with dose and time of exposure of ADDLs.

The test system of series [6] is B103 cells. The series can be described thus: FACScan assay for binding to intact cells. Also noted: species or system rat. On the procedure: For flow cytometry, cells are dissociated with 0.1% trypsin and plated at least overnight onto tissue culture plastic at low density. Cells are removed with cold PBS/0.5 mM EDTA, washed three times and resuspended in ice-cold PBS to a final concentration of 500,000 cells/mL. Cells are incubated in cold PBS with amyloid β oligomers prepared as described in Example 1, except that 10% of the amyloid β is an amyloid β 1-42 analog containing biocytin at position 1 replacing aspartate. Oligomers with and without inhibitor compounds present are added to the cells for 24 hours. The cells are washed twice in cold PBS to remove free, unbound amyloid β oligomers and resuspended in a 1:1,000 dilution of avidin conjugated to fluorescein and incubated for one hour at 4° C. with gentle agitation. Cells are analyzed by a Becton-Dickinson Fluorescence Activated Cell Scanner (FACScan). 10,000 or 20,000 events are collected for both forward scatter (size) and fluorescence intensity, and the data are analyzed by Consort 30 software (Becton-Dickinson). An alternative procedure uses amyloid β-specific antibodies and fluorescent secondary antibody instead of avidin, eliminating the need to incorporate 10% of the biotynylated amyloid β analog. FIG. 2 illustrates the ADDL-cell binding FACS analysis, and FIG. 3 illustrates the utility of the FACS assay for identification of ADDL-blocking compounds.

The nature of series [7]: Neurotoxicity of amyloid β fractions and samples (test system not specified). The class given is cell-based. Particulars: supernatant compared with unfractionated amyloid β aggregated under literature conditions.
Series [8] concerns primary astrocytes. The series can be described thus: Activation of primary astrocyte cultures. It is filed as cell-based.
Series [9] has as its system neuronal cell cultures. The series can be described thus: Neurotoxicity in neuronal cell cultures. It is filed as cell-based. On the procedure:
PC12 cells are passaged at 4×10^4 cell/well on a 96-well culture plate and grown for 24 hours in DMEM+10% fetal calf serum+1% S/P/F (streptomycin, penicillin, and fungizone). Plates are treated with 200 μg/mL poly-1-lysine for 2 hours prior to cell plating to enhance cell adhesion. One set of six wells is left untreated and fed with fresh media, while another set of wells is treated with the vehicle control (PBS containing 10% 0.01 N HCl, aged o/n at RT). Positive controls are treated with triton (1%) and Na Azide (0.1%) in normal growth media. Amyloid β oligomers prepared as described in Example 1, with and without inhibitor compounds present are added to the cells for 24 hours. After the 24 hour incubation, MTT (0.5 mg/mL) is added to the cells for 2.5 hours (11 μL of 5 mg/ml stock solubilized in PBS into 100 μL of media). Healthy cells reduce the MTT into a formazan blue colored product. After the incubation with MTT, the media is aspirated and 100 μL of 100% DMSO is added to lyse the cells and dissolve the blue crystals. The plate was incubated for 15 min at RT and read on a plate reader (ELISA) at 550 nm.
HN2 cells are passaged at 4×10^4 cells/well on a 96-well culture plate and grown for 24 hours in DMEM+10% fetal calf serum+1% S/P/F (streptomycin, penicillin, and fungizone). […] The plate is incubated for 15 min at RT and read on a plate reader (ELISA) at 550 nm.

The test system of series [10] is fyn kinase. Put plainly: fyn kinase activity in B103 cells. The class given is cell-based, rat.

Turning to “ADDLs: amyloid β peptide assembled into non-fibrillar oligomeric structures; soluble globular assemblies of amyloid β 1-42”, the “LTP consolidation phase, synaptic activity as cell body spike amplitude” value in [1] (20 nL injected into hippocampal region 60-70 minutes prior to LTP, over the subsequent 2 hours, compared with control animals) is on record as “significant, continuing decline in synaptic activity”. In series [1] (20 nL injected into hippocampal region of adult mouse 60-70 minutes prior to LTP), the LTP stimulation phase entry was “identical with saline control injections”. Besides, the “neurotoxicity in brain slice cultures from mice lacking a functional fyn gene” value in series [2] is “no increased neurotoxicity”. For the same substance, the “neurotoxicity in brain slice cultures” value in [3] (supernatant of amyloid β 1-42 incubated in F12 at 4° C., Live/Dead fluorescence assay) is “highly neurotoxic”. Also, the “morphology of serum starved B103 cells” value in series [4] is listed as “rapid morphological change”. The “cell death in brain slices after the LTP experiment” value in series [5] was “no cell death had occurred”. In addition, the “receptor binding of ADDLs to B103 cells” value in [6] (10% biotinylated amyloid β 1-42, fluorescent avidin conjugate, FACS) is given as “saturable”. The “neurotoxicity of amyloid β fractions/samples” value in series [7] is listed as “significantly higher neurotoxicity”. For the same substance, in series [8], the activation of astrocytes entry is given as “become activated”; the “mRNA for IL-1, inducible nitric oxide synthase, apo E, Apo J and α1-antichymotrypsin in astrocytes” value is “become elevated”. In addition, the “neurotoxicity in neuronal cell cultures” value in series [9] is recorded as “highly neurotoxic”. For the same substance, the “fyn kinase activity in B103 cells” value in series [10] is given as “activate fyn kinase activity”.

Regarding amyloid β 1-40 [reference compound], the “blocking of the neurotoxic effects of ADDLs in the hippocampal brain slice assay” value in [3] (at 10 μM) is “capable of blocking the neurotoxic effects of ADDLs”. Further, the “blocking of ADDL binding in the receptor assay” value in series [6] (at 10 μM) is on record as “capable of blocking ADDL binding”.

The values above are taken from US7638283B2, “Amyloid β protein (globular assembly and uses thereof)” (Northwestern University, priority 1997, dated 2009).
